The source of these data is US6264916A, “N,N-dimethyldiatrizoic acid and its conjugates as hepatobiliary agents for x-ray CT imaging” (Bracco Research, USA, priority 2000, dated 2001).

Where two headings read alike, the source gives them in different places.

A short description of series [1]: Biodistribution studies in mice (radioiodinated compounds, % ID/g-tissue). It is filed as in vivo. As to conditions: tracer level, but MDTA-Na 0.18M and MDTA-NMG 0.19M; for Biodistribution, Blood 1' / Biodistribution, Kidney 1' / Biodistribution, Liver 1' / Biodistribution, Sm/Lrg. Intestine 1': 1 min; for Biodistribution, Blood 5' / Biodistribution, Kidney 5' / Biodistribution, Liver 5' / Biodistribution, Sm/Lrg. Intestine 5': 5 min; for tissue uptake at 1 h / tissue uptake at 1 min / tissue uptake at 5 min: mouse, iv. Here is the method:
All of the new analogs were radiolabeled in order to determine their physical and biological properties. The iodinated compounds were exchange-labeled by heating with Na^125 I in the presence of CuSO4 and Na2 S2 O5 in glacial acetic acid at 135-150° C. for 1 h, followed by HPLC purification using a nucleosil C18 column and CH3 CN--H2 O containing 0.1% TFA as an eluent. In some cases (e.g. the compound of Example 12) the radioiodination was carried out by heating with Na*I in HOAc--NaOAc (pH 4.6) at 100° C. for 15 min. In all cases radiolabeled compounds of acceptable radiochemical purity and specific activity were obtained.
The compound of formula I, N,N-dimethyl-diatrizoic acid, was similarly radiolabeled for biological studies.
a) For intravenous administration the preferred vehicle for the compounds of formula I, II and III is bovine serum albumin, however, other physiologically acceptable vehicles may also be used.
Biodistribution studies were conducted in mice and the results are given in Table I. X-Ray CT images of MDTA in mice and rats indicate that these hydrophobic diatrizoate analogs may be of promise for liver imaging.

Series [2] in a line: Water solubility of MDTA salts. It is filed as physicochemical. Here is the method: The compound of formula I, N,N-Dimethyldiatrizoic acid (I') (hereinafter sometimes referred to as MDTA) was synthesized, as in reference H. Holtermann et al., U.S. Pat. No. 3,178,673, Apr. 13, 1965, by the N-methylation of diatrizoic acid (IV) using either methyl iodide or dimethyl sulfate in aqueous media at alkaline pH to obtain pure MDTA (>99.9% purity) as a white crystalline solid (m.p. 185° C.).

Where [3] appears, read: blood, blood, 60', read-out: Biodistribution, Blood 60'.
[4] abbreviates: small/large intestine, 60', 60 min.
The mark [5] stands for this setting: blood, blood, read-out: Biodistribution, Blood 1'.
Setting [6] is: blood, blood, read-out: Biodistribution, Blood 5'.
Where [7] appears, read: kidney, kidney, read-out: Biodistribution, Kidney 1'.
Setting [8] is: kidney, kidney, read-out: Biodistribution, Kidney 5'.
[9] abbreviates: kidney, kidney, 60', read-out: Biodistribution, Kidney 60'.
Where [10] appears, read: liver, liver, read-out: Biodistribution, Liver 1'.
Setting [11] is: liver, liver, read-out: Biodistribution, Liver 5'.
Where [12] appears, read: liver, liver, 60', read-out: Biodistribution, Liver 60'.
[13] abbreviates: small/large intestine, small/large intestine, read-out: Biodistribution, Sm/Lrg. Intestine 1'.
[14] abbreviates: small/large intestine, small/large intestine, read-out: Biodistribution, Sm/Lrg. Intestine 5'.
[15] abbreviates: small/large intestine, small/large intestine, 60', read-out: Biodistribution, Sm/Lrg. Intestine 60'.

For the compound `CC(=O)N(C)c1c(I)c(C(=O)O)c(I)c(N(C)C(C)=O)c1I` [MDTA-Na], in series [1] (blood), the “Biodistribution, Blood 1'” value was 6.21 % ID/g-tissue and the “Biodistribution, Blood 5'” value was 3.03 % ID/g-tissue. In series [1] (kidney), the “Biodistribution, Kidney 1'” value was found to be 12.97 % ID/g-tissue and the “Biodistribution, Kidney 5'” value came to 12.72 % ID/g-tissue. Also, in series [1] (kidney, 60', 60 min), the “Biodistribution, Kidney 60'” value worked out at 0.96 % ID/g-tissue. Moreover, in series [1] (liver), the “Biodistribution, Liver 1'” value was determined as 13.23 % ID/g-tissue and the “Biodistribution, Liver 5'” value is 17.56 % ID/g-tissue. For the same compound, the “Biodistribution, Liver 60'” value in series [1] (liver, 60', 60 min) came out at 2.42 % ID/g-tissue. For the same compound, in series [1] (setting [3]), the tissue uptake at 1 h stood at 0.16 %ID/g. In addition, in series [1] (small/large intestine), the “Biodistribution, Sm/Lrg. Intestine 1'” value was 1.81 % ID/g-tissue and the “Biodistribution, Sm/Lrg. Intestine 5'” value was found to be 3.92 % ID/g-tissue. In addition, the “Biodistribution, Sm/Lrg. Intestine 60'” value in series [1] (setting [4]) worked out at 17.02 % ID/g-tissue. Further, the Water solubility in series [2] (listed as sodium salt) is ~ 0.35 M.
For the compound `CC(=O)N(C)c1c(I)c(C(=O)NCC(=O)O)c(I)c(N(C)C(C)=O)c1I` [Example F2-DP-MDTA, 4-[[[3,5-Bis(acetylmethylamino)-2,4,6-triiodophenyl]carbonyl]amino]-acetic acid], the tissue uptake at 1 min in series [1] (setting [5]) worked out at 4.57 %ID/g; in series [1] (setting [7]), 17.1 %ID/g; in series [1] (setting [10]), 12.8 %ID/g; in series [1] (setting [13]), 1.28 %ID/g. The tissue uptake at 5 min in series [1] (setting [6]) was 0.81 %ID/g; in series [1] (setting [8]) it was 5.69 %ID/g; in series [1] (setting [11]), 10.6 %ID/g; in series [1] (setting [14]) it was 8.81 %ID/g. Besides, the tissue uptake at 1 h in series [1] (setting [3]) stood at 0.03 %ID/g; in series [1] (setting [9]), 0.16 %ID/g; in series [1] (setting [12]) it was 1.03 %ID/g; in series [1] (setting [15]), 16.5 %ID/g.
Turning to `CC(=O)N(C)c1c(I)c(C(=O)Nc2ccc(CCCC(=O)O)cc2)c(I)c(N(C)C(C)=O)c1I` [Example F4-P-MDTA, 4-(((3,5-Bis(acetylmethylamino)-2,4,6-triiodophenyl)carbonyl)amino)benzenebutyric acid], the tissue uptake at 1 min in series [1] (setting [5]) was 3.55 %ID/g; in series [1] (setting [7]) it was 5.63 %ID/g; in series [1] (setting [10]), 29.6 %ID/g; in series [1] (setting [13]), 1.71 %ID/g. Moreover, the tissue uptake at 5 min amounted to 0.57 %ID/g in series [1] (setting [6]), 5.41 %ID/g in series [1] (setting [8]), 29.4 %ID/g in series [1] (setting [11]) and 4.56 %ID/g in series [1] (setting [14]). The tissue uptake at 1 h in series [1] (setting [3]) was found to be 0.07 %ID/g; in series [1] (setting [9]) it was 0.63 %ID/g; in series [1] (setting [12]) it was 6.13 %ID/g; in series [1] (setting [15]), 20.4 %ID/g.
Regarding `CC(=O)N(C)c1c(I)c(C(=O)O)c(I)c(N(C)C(C)=O)c1I` [MDTA-NMG], in series [1] (blood), the “Biodistribution, Blood 1'” value is reported as 6.63 % ID/g-tissue and the “Biodistribution, Blood 5'” value was found to be 3.66 % ID/g-tissue. For the same compound, in series [1] (blood, 60', 60 min), the “Biodistribution, Blood 60'” value is reported as 0.12 % ID/g-tissue. For the same compound, in series [1] (kidney), the “Biodistribution, Kidney 1'” value is given as 13.53 % ID/g-tissue and the “Biodistribution, Kidney 5'” value was found to be 12.65 % ID/g-tissue. In series [1] (kidney, 60', 60 min), the “Biodistribution, Kidney 60'” value is given as 0.81 % ID/g-tissue. In series [1] (liver), the “Biodistribution, Liver 1'” value came to 12.30 % ID/g-tissue and the “Biodistribution, Liver 5'” value amounted to 16.23 % ID/g-tissue. The “Biodistribution, Liver 60'” value in series [1] (liver, 60', 60 min) amounted to 2.13 % ID/g-tissue. Moreover, in series [1] (small/large intestine), the “Biodistribution, Sm/Lrg. Intestine 1'” value is listed as 2.03 % ID/g-tissue and the “Biodistribution, Sm/Lrg. Intestine 5'” value stood at 3.80 % ID/g-tissue. Moreover, in series [1] (setting [4]), the “Biodistribution, Sm/Lrg. Intestine 60'” value was determined as 16.48 % ID/g-tissue. For the same compound, the Water solubility in series [2] (listed as N-methyl-glucamine (NMG) salt) is recorded as ~ 1.3 M.
Take `CC(=O)N(C)c1c(I)c(C(=O)NCCCC(=O)O)c(I)c(N(C)C(C)=O)c1I` [Example F4-DP-MDTA, 4-[[[3,5-Bis(acetylmethylamino)-2,4,6-triiodophenyl]carbonyl]amino]-butanoic acid]: the tissue uptake at 1 min in series [1] (setting [5]) turned out to be 4.91 %ID/g; in series [1] (setting [7]) it was 17.9 %ID/g; in series [1] (setting [10]) it was 16.1 %ID/g; in series [1] (setting [13]), 1.73 %ID/g. Besides, the tissue uptake at 5 min in series [1] (setting [6]) is 0.82 %ID/g; in series [1] (setting [8]) it was 7.89 %ID/g; in series [1] (setting [11]) it was 11.9 %ID/g; in series [1] (setting [14]), 11.3 %ID/g. The tissue uptake at 1 h in series [1] (setting [3]) was determined as 0.12 %ID/g; in series [1] (setting [9]), 0.05 %ID/g; in series [1] (setting [12]), 0.33 %ID/g; in series [1] (setting [15]), 21.2 %ID/g.
